This assay concerns patient suffering from post-nasal drip and upper laryngeal syndrome. The assay can be described thus: two rounds of testing of orally administered, nasally exhaled aerosolized ciclesonide in a patient. Type of assay: in vivo. To be noted: one patient; two rounds with an interval of two weeks; two sprays of 200 micrograms ciclesonide into FIG. 3 device, four to six oral inhalations each followed by nasal exhalation, morning and evening for two weeks. The text has this: The Applicant has performed two rounds of testing on a patient suffering from post-nasal drip and upper laryngeal syndrome with an interval of two weeks between the rounds, each round consisting in administering a therapeutically effective dose of ciclesonide using the method of the present invention. […] In some embodiments, the therapeutically effective dose of ciclesonide for the treatment of upper airway cough syndrome is from 25 to 800 micrograms. Use of ciclesonide for the treatment of upper airway cough syndrome provides the advantage of avoiding fungal infections typically associated with administration of corticosteroid in the posterior nasal region, pharynx and the larynx.
In conducting the rounds of testing, the Applicant used the embodiment of the oral delivery device of the present invention shown in FIG. 3. […] It should be noted that in some embodiments, the effective volume is greater or smaller than 375 milliliters. In operation, the patient released two sprays of aerosolized ciclesonide into the oral delivery device, each one of the sprays containing 200 micrograms of ciclesonide, and performed four to six oral inhalations, each one of the inhalations being followed by a nasal exhalation into the ambient atmosphere. Each one of the inhalations drew ambient air into the oral delivery device to sweep in an additional amount of aerosolized ciclesonide. […]

As for `CC(C)C(=O)OCC(=O)[C@@]12O[C@H](C3CCCCC3)O[C@@H]1C[C@H]1[C@@H]3CCC4=CC(=O)C=C[C@]4(C)[C@H]3[C@@H](O)C[C@@]12C` [ciclesonide], the “patient-reported symptoms typical of upper airway cough syndrome following each round” value is given as “significant alleviation of the symptoms”.

These data come from US10391268B2, “Device and method of delivering particles in the upper respiratory tract” (SERVICES MEDICAUX ARNOLD ET JOAN ZIDULKA INC., priority 2016, dated 2019).
